# According to patent US20100048498A1, “STABLE NON-DIHYDRATE AZITHROMYCIN ORAL SUSPENSIONS” (priority 2004, published 2010):
# Assays:
# Assay type in all cases: physicochemical
# [1] = Stability of azithromycin form G in suspensions prepared from POS formulations I, II and III; conditions: 18 mls water, 30° C.
# Protocol: These POS formulations were created by individually weighing each formulation component into a 60-cc High Density Polyethylene (HDPE) bottle with closure. The resulting formulations were then dry-mixed with a Turbula blender (Glen Mills Inc. Maywood, NJ) for 5 minutes. The powder blends were then constituted with 18 mls of water, shaken for 30 seconds and stored without agitation under controlled temperature conditions.
# Upon conclusion of the storage time period the POS samples were filtered using a Buchner funnel in combination with a standard vacuum filtration apparatus. A Millipore prefilter (AP25, 47 mm) was fitted onto the funnel for the collection of suspended solids. Before filtering, the constituted POS sample was poured into a 200 ml volumetric flask and diluted to 200 ml with water. This lowered the viscosity of the sample, facilitating a quick filtration step. With the vacuum on, the diluted POS samples were poured onto the Millipore prefilter. The isolated filtrate remaining on top of the prefilter was then allowed to stand for 2-minutes in order to dry. Vacuum was applied to the filtration apparatus during this drying step. Suspensions containing only bulk drug were transferred directly onto the filter paper upon completion of storage, without the described dilution step during sample preparation. After drying, the collected filtrate was placed into 4 cc Sunbroker vials and analyzed via Solid-State Nuclear Magnetic Resonance (SS-NMR) for quantification of conversion to azithromycin dihydrate (form A).
# Approximately 300 mg of sample were tightly packed into a 7 mm ZrO spinner for each sample analyzed. One-dimensional ^13C spectra were collected at ambient pressure using ^1H-^13C cross-polarization magic angle spinning (CPMAS) at 295 K on a Bruker 7 mm BL CPMAS probe positioned into a wide-bore Bruker Avance DSX 500 MHz NMR spectrometer (Bruker BioSpin Corporation; Billerica, Mass.). The samples were spun at 7000 Hz corresponding to the maximum specified spinning speed for the 7 mm spinners. The fast spinning speed minimized the intensities of the spinning side bands. To optimize the signal sensitivity, the cross-polarization contact time was adjusted to 2.3 ms and the decoupling power was set to 65 kHz. Typically, a total of 600 scans were acquired, resulting in approximately a 30 minute acquisition time. The spectra were referenced using an external sample of adamantane with its most upfield resonance set to 29.5 ppm.
# Eight pairs of resolved peaks were identified to calibrate ratios of form A in the presence of form G, N, M or F. Integral intensities of all peaks were used as input for the calibration procedure using five different binary mixtures ranging from 3 to 81% of form A with each non-dihydrate form. From this, one non-linear calibration graph was generated for each pair of peaks and each form. For the experimental samples, only the peaks that were totally void from excipient overlap were preferentially integrated. The unknown percentages of form A were then determined from the appropriate calibration graphs. The final result for each sample analyzed was calculated as a weighted average of the determinations from each resolved peak pair.
# The stability of form G azithromycin was also evaluated for suspensions prepared from POS formulations I, II and III. The form G bulk drug substance contained <1% by weight of form A prior to formulation and constitution. These suspensions were constituted with 18 mls of water and stored for 1 and 10 days at 30° C.
# [2] = Effects of flavoring components upon azithromycin form G conversion in constituted POS; conditions: room temperature, 24-hours
# Protocol: Standards of these identified solvent components were then used to investigate the source of the stability problem introduced by these flavorings. The estimated concentration of each solvent in a constituted POS was calculated based on the GC-MS quantification of the specified solvent in the flavorings. Aqueous solutions of each solvent/component were then created at these concentrations and 18 mls of each solvent-solution was used to constitute an unflavored POS formulation I sample using form G. The constituted drug suspensions were stored at room temperature for 24-hours, before being filtered and analyzed by SS-NMR for quantification of azithromycin form change over this interval. POS formulations I and II were constituted with 18 mls of water and stored identically to serve as controls for this experiment.
# [3] = Effect of individual flavorings and sucrose on conversion of azithromycin form G to form A in pH 8.16 buffer; design: key: AC means all converted to form A; conditions: 18 mls pH 8.16 buffer, room temperature
# Protocol: To evaluate a proposed excipient, the active dose of the azithromycin was suspended with the desired amount of potential excipient in a 0.1 M phosphate buffer system adjusted to a pH of 8.16. The buffer system was created by dissolving 13.738 g of NaH2PO4.H2O in 900 ml of water, adjusting the pH to 8.16 with sodium hydroxide, and diluting the solution to 1 liter with water. The sample, once constituted with buffer, was then stored at room temperature for the desired constituted product shelf-life. The azithromycin product was then isolated through filtration, and the resulting solid filtrate analyzed by a Solid-State Nuclear Magnetic Resonance method described previously that allows for quantitation of the dihydrate form present.
# The effect of various individual flavoring components and of sucrose upon conversion of azithromycin form G to azithromycin dihydrate (form A), in suspensions, were evaluated as follows.
# An 820 mg dose of form G azithromycin was weighed and mixed with 200 mg of each flavoring or sucrose. The mass of each flavoring, used in this test, was chosen to match that of the anticipated required amount for effective flavoring in the constituted POS. In this example, five flavorings, specifically artificial crème de vanilla, B&C banana, Trusil banana, Trusil cherry and artificial grape were investigated in addition to sucrose. Each of the binary samples were then constituted with 18 mls of pH=8.16 buffer and stored for 1, 5 and 10-days at room temperature.
# A control suspension of azithromycin form G constituted with 18 mls of pH=8.16 buffer was run with each series of experiments using the same storage conditions. Upon completion of the constituted storage time period these samples were filtered to isolate drug product and analyzed using the SS-NMR method to quantify the amount of azithromycin dihydrate present.
structure (smiles),measurement,setting,value
"CC[C@H]1OC(=O)[C@H](C)[C@@H](O[C@H]2C[C@@](C)(OC)[C@@H](O)[C@H](C)O2)[C@H](C)[C@@H](O[C@@H]2O[C@H](C)C[C@H](N(C)C)[C@H]2O)[C@](C)(O)C[C@@H](C)CN(C)[C@H](C)[C@@H](O)[C@]1(C)O [Form G, azithromycin sesquihydrate]",% Form A,"[1]; Formulation I (no flavorings), Day 1",0%
same,% Form A,"[1]; Formulation I (no flavorings), Day 10, listed as form G, sesquihydrate",did not exhibit conversion
same,% Form A,"[1]; Formulation I (no flavorings), Day 10, sesquihydrate",0%
same,% Form A,"[1]; Formulation II (Trusil banana), Day 1",84%
same,% Form A,"[1]; Formulation II (Trusil banana), Day 10",91%
same,% Form A,"[1]; Formulation III (B&C banana), Day 1",27%
same,% Form A,"[1]; Formulation III (B&C banana), Day 10",52%
same,% Form A,[2]; Formulation I constituted with 18 mL 0.002 mg/ml ethyl ester propanoic acid,0%
same,% Form A,[2]; Formulation I constituted with 18 mL 0.025 mg/ml 3-methyl-1-butanol,0%
same,% Form A,[2]; Formulation I constituted with 18 mL 0.043 mg/ml isoamyl isovalerate,13%
same,% Form A,[2]; Formulation I constituted with 18 mL 0.144 mg/ml 2-methyl-butyl acetate,0%
same,% Form A,[2]; Formulation I constituted with 18 mL 0.197 mg/ml ethyl acetate,0%
same,% Form A,[2]; Formulation I constituted with 18 mL 0.587 mg/ml benzaldehyde,0%
same,% Form A,[2]; Formulation I constituted with 18 mL 0.785 mg/ml 3-methyl-butyl acetate + 0.562 mg/ml benzaldehyde,11%
same,% Form A,[2]; Formulation I constituted with 18 mL 0.815 mg/ml 3-methyl-butyl acetate,2%
same,% Form A,"[2]; Formulation I constituted with 18 mL Water, listed as form G, sesquihydrate",no conversion
same,% Form A,"[2]; Formulation I constituted with 18 mL Water, sesquihydrate",0%
same,% Form A,"[2]; Formulation II constituted with 18 mL Water, listed as form G, sesquihydrate",approximately 71%
same,% Form A,"[2]; Formulation II constituted with 18 mL Water, sesquihydrate",71%
same,Δ % Form A,"[3]; 820 mg form G + 200 mg Artificial Crème de Vanilla Flavor, constituted 1 day, listed as form G, sesquihydrate",did not exhibit conversion
same,Δ % Form A,"[3]; 820 mg form G + 200 mg Artificial Crème de Vanilla Flavor, constituted 1 day, sesquihydrate",0%
same,Δ % Form A,"[3]; 820 mg form G + 200 mg Artificial Crème de Vanilla Flavor, constituted 5 days",4%
same,Δ % Form A,"[3]; 820 mg form G + 200 mg Artificial Crème de Vanilla Flavor, constituted 10 days",30%
same,Δ % Form A,"[3]; 820 mg form G + 200 mg Artificial Grape Flavor, constituted 1 day",57%
same,Δ % Form A,"[3]; 820 mg form G + 200 mg Artificial Grape Flavor, constituted 5 days",75%
same,Δ % Form A,"[3]; 820 mg form G + 200 mg Artificial Grape Flavor, constituted 10 days",AC
same,Δ % Form A,"[3]; 820 mg form G + 200 mg B&C Banana Flavor, constituted 1 day, listed as form G, sesquihydrate",did not exhibit conversion
same,Δ % Form A,"[3]; 820 mg form G + 200 mg B&C Banana Flavor, constituted 1 day, sesquihydrate",0%
same,Δ % Form A,"[3]; 820 mg form G + 200 mg B&C Banana Flavor, constituted 5 days",27%
same,Δ % Form A,"[3]; 820 mg form G + 200 mg B&C Banana Flavor, constituted 10 days",AC
same,Δ % Form A,"[3]; 820 mg form G + 200 mg Sucrose, constituted 1 day",2%
same,Δ % Form A,"[3]; 820 mg form G + 200 mg Sucrose, constituted 5 days",1%
same,Δ % Form A,"[3]; 820 mg form G + 200 mg Sucrose, constituted 10 days, listed as form G, sesquihydrate",only minimal conversion
same,Δ % Form A,"[3]; 820 mg form G + 200 mg Sucrose, constituted 10 days, sesquihydrate",6%
same,Δ % Form A,"[3]; 820 mg form G + 200 mg Trusil Banana Flavor, constituted 1 day",32%
same,Δ % Form A,"[3]; 820 mg form G + 200 mg Trusil Banana Flavor, constituted 5 days",57%
same,Δ % Form A,"[3]; 820 mg form G + 200 mg Trusil Banana Flavor, constituted 10 days",AC
same,Δ % Form A,"[3]; 820 mg form G + 200 mg Trusil Cherry Flavor, constituted 1 day",32%
same,Δ % Form A,"[3]; 820 mg form G + 200 mg Trusil Cherry Flavor, constituted 5 days",75%
same,Δ % Form A,"[3]; 820 mg form G + 200 mg Trusil Cherry Flavor, constituted 10 days",AC
